The values that follow come from ChEMBL document CHEMBL1125364, “Thromboxane receptor antagonism combined with thromboxane synthase inhibition. 3. Pyridinylalkyl-substituted 8-[(arylsulfonyl)amino]octanoic acids” (J Med Chem, 1992).

The species entered for test [1] is Canis familiaris. In words: The compound was tested in vitro for its inhibitory activity against U 46619-induced contraction of saphenous vein in dog. The format is functional. Particulars: Canis lupus familiaris, read-out: pA2 (converted).
Test [2] is filed under the species Homo sapiens. The experiment in a line: The compound was tested in vitro for its inhibitory activity against U 46619-induced aggregation of human platelet rich plasma (PRP). It is filed as functional.
The species entered for test [3] is Homo sapiens. In words: The compound was tested in vitro for its inhibitory activity against U 46619-induced aggregation of washed human platelets. It is filed as functional.
The next test has as its target T1, Thromboxane-A synthase (Homo sapiens, UniProt P24557).
T1 sequence (P24557 whole entry): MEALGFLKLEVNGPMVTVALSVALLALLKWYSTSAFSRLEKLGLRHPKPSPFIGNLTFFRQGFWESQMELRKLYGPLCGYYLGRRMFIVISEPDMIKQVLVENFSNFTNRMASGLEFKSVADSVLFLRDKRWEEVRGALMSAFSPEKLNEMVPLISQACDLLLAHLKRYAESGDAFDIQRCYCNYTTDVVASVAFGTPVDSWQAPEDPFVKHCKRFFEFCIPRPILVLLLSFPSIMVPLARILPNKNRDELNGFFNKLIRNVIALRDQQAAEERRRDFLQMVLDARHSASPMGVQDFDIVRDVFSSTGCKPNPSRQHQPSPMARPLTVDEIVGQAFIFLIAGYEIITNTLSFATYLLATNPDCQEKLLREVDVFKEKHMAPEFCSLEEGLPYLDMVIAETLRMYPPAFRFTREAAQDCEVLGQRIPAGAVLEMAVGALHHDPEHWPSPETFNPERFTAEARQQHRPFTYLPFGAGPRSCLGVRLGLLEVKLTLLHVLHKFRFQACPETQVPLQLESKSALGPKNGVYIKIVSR
In words: The compound was tested in vitro for its inhibitory activity against thromboxane synthase A2 (TXA2).

The species named for test [4] is Canis familiaris. The experiment in a line: The compound was tested in vitro for its antagonistic activity against U 46619-induced contraction of saphenous vein in dog; agonist activity was observed at e-6 - e-7. The following applies: Canis lupus familiaris, filed as agonist.
The species entered for test [5] is Canis familiaris. Particulars: Canis lupus familiaris; Saphenous vein; filed as agonist.

One may read the IC50 as the concentration that inhibits the measured activity by half. Read a high IC50 as weaker potency.

Each structure is given as a SMILES string. Where only a bound is given, the exact number is not on record here.

In the case of `O=C(O)CCCCC(CCNS(=O)(=O)c1ccc(Cl)cc1)Cc1cccnc1` (centres undefined), in the test listed under Canis familiaris [1], the Kb was 11.7 nM. Further, the values for the 50% inhibitory concentration (IC50) in the test listed under Homo sapiens [2], in the test listed under Homo sapiens [3] and at Thromboxane-A synthase were 370 nM, 117 nM and 14 nM, respectively.
Regarding `O=C(O)CCCC(CCCNS(=O)(=O)c1ccc(Cl)cc1)CCc1cccnc1` (centres undefined), the Kb in the test listed under Canis familiaris [1] was 1.74 nM. For the same compound, the concentration for half-maximal inhibition (IC50) was 4600 nM in the test filed under Homo sapiens [2], 220 nM in the test listed under Homo sapiens [3] and 20 nM on Thromboxane-A synthase.
Consider `O=C(O)CCCCCC(CNS(=O)(=O)c1ccc(Cl)cc1)c1cccnc1` (centres undefined), for which the values for the IC50 in the test listed under Homo sapiens [2], in the test filed under Homo sapiens [3] and against Thromboxane-A synthase were 280 nM, 20 nM and 220 nM, respectively. Besides, the pA2 result in the test listed under Canis familiaris [4] is “Agonist”.
Take `O=C(O)CCC(CCCCNS(=O)(=O)c1ccc(Cl)cc1)CCCc1cccnc1` (centres undefined): the Kb in the test filed under Canis familiaris [1] is 1.26 nM. Further, the results for the concentration for half-maximal inhibition (IC50) in the test filed under Homo sapiens [2], in the test listed under Homo sapiens [3] and on Thromboxane-A synthase were 390 nM, 19 nM and 2 nM, respectively.
As to `O=C(O)CCCCCCC(NS(=O)(=O)c1ccc(Cl)cc1)c1cccnc1` (centres undefined), the IC50 was 600 nM in the test listed under Homo sapiens [2], 27 nM in the test filed under Homo sapiens [3] and greater than 500 nM at Thromboxane-A synthase. Also, the pA2 entry in the test listed under Canis familiaris [5] was “Agonist”.
Turning to `O=C(O)C(CCCCCCNS(=O)(=O)c1ccc(Cl)cc1)CCCCCc1cccnc1` (centres undefined), the results for the IC50 in the test listed under Homo sapiens [3] and against Thromboxane-A synthase were 300 nM and 4 nM, respectively.
The like results for `O=C(O)CC(CCCCCNS(=O)(=O)c1ccc(Cl)cc1)CCCCc1cccnc1` (centres undefined) were, in that order, 1390 nM and 100 nM.
